In patent publication US8735322B2, “Herbicides” (Syngenta Limited, priority 2008, dated 2014):

Legend:
Type in all cases: in vivo
[1] = test system: Alopecurus myosuroides (ALOMY); assay: Example A pre-emergence herbicidal activity, glasshouse pot test; conditions: 480 h, rate 500 g/ha, evaluated 20 days later, 100=total damage to plant, 0=no damage to plant
Procedure: (§1) Seeds of a variety of test species were sown in standard soil in pots. After cultivation for one day (pre-emergence) or after 10 days cultivation (post-emergence) under controlled conditions in a glasshouse, the plants were sprayed with an aqueous spray solution derived from the formulation of the technical active ingredient in 0.6 ml acetone and 45 ml formulation solution containing 10.6% Emulsogen EL (Registry number 61791-12-6), 42.2% N-methylpyrrolidone, 42.2% dipropylene glycol monomethyl ether (Registry number 34590-94-8) and 0.2% X-77 (Registry number 11097-66-8). The test plants were then grown in a greenhouse under optimum conditions until, 15 days later for post-emergence and 20 days for pre-emergence, the test was evaluated (100=total damage to plant; 0=no damage to plant). Alopecurus myosuroides (ALOMY), Avena fatua (AVEFA), Lolium perenne (LOLPE), Setaria faberi (SETFA), Digitaria sanguinalis (DIGSA), Echinochloa crus-galli (ECHCG) Pre-Emergence Activity

Avena fatua (AVEFA) [2] = assay: as above; conditions: 480 h, rate 500 g/ha, evaluated 20 days later, 100=total damage to plant, 0=no damage to plant
Procedure: as §1

[3] = test system: Digitaria sanguinalis (DIGSA); assay: as above; conditions: 480 h, rate 500 g/ha, evaluated 20 days later, 100=total damage to plant, 0=no damage to plant
Procedure: as §1

[4] = test system: Echinochloa crus-galli (ECHCG); assay: as above; conditions: 480 h, rate 500 g/ha, evaluated 20 days later, 100=total damage to plant, 0=no damage to plant
Procedure: as §1

Lolium perenne (LOLPE) [5] = assay: as above; conditions: 480 h, rate 500 g/ha, evaluated 20 days later, 100=total damage to plant, 0=no damage to plant
Procedure: as §1

Setaria faberi (SETFA) [6] = assay: as above; conditions: 480 h, rate 500 g/ha, evaluated 20 days later, 100=total damage to plant, 0=no damage to plant
Procedure: as §1

[7] = test system: Alopecurus myosuroides (ALOMY); assay: Example A post-emergence herbicidal activity, glasshouse pot test; conditions: 360 h, rate 500 g/ha, evaluated 15 days after spraying, read-out: herbicidal damage ALOMY (100=total damage to plant; 0=no damage to plant)
Procedure: as §1, with “Post Emergency” for “Pre-Emergence”

Avena fatua (AVEFA) [8] = assay: as above; conditions: 360 h, rate 500 g/ha, evaluated 15 days after spraying, read-out: herbicidal damage AVEFA (100=total damage to plant; 0=no damage to plant)
Procedure: as §1, with “Post Emergency” for “Pre-Emergence”

[9] = test system: Digitaria sanguinalis (DIGSA); assay: as above; conditions: 360 h, rate 500 g/ha, evaluated 15 days after spraying, read-out: herbicidal damage DIGSA (100=total damage to plant; 0=no damage to plant)
Procedure: as §1, with “Post Emergency” for “Pre-Emergence”

[10] = test system: Echinochloa crus-galli (ECHCG); assay: as above; conditions: 360 h, rate 500 g/ha, evaluated 15 days after spraying, read-out: herbicidal damage ECHCG (100=total damage to plant; 0=no damage to plant)
Procedure: as §1, with “Post Emergency” for “Pre-Emergence”

Lolium perenne (LOLPE) [11] = assay: as above; conditions: 360 h, rate 500 g/ha, evaluated 15 days after spraying, read-out: herbicidal damage LOLPE (100=total damage to plant; 0=no damage to plant)
Procedure: as §1, with “Post Emergency” for “Pre-Emergence”

Setaria faberi (SETFA) [12] = assay: as above; conditions: 360 h, rate 500 g/ha, evaluated 15 days after spraying, read-out: herbicidal damage SETFA (100=total damage to plant; 0=no damage to plant)
Procedure: as §1, with “Post Emergency” for “Pre-Emergence”

SMILES | pest or weed control at 500 g/ha [1] [%] | pest or weed control at 500 g/ha (Avena fatua (AVEFA) [2]) [%] | pest or weed control at 500 g/ha [3] [%] | pest or weed control at 500 g/ha [4] [%] | pest or weed control at 500 g/ha (Lolium perenne (LOLPE) [5]) [%] | pest or weed control at 500 g/ha (Setaria faberi (SETFA) [6]) [%] | pest or weed control at 500 g/ha [7] [%] | pest or weed control at 500 g/ha (Avena fatua (AVEFA) [8]) [%] | pest or weed control at 500 g/ha [9] [%] | pest or weed control at 500 g/ha [10] [%] | pest or weed control at 500 g/ha (Lolium perenne (LOLPE) [11]) [%] | pest or weed control at 500 g/ha (Setaria faberi (SETFA) [12]) [%]
CCc1cc(C)cc(CC)c1C1=C(O)CC(CC2OCC(C)(C)CO2)CC1=O (centres unmarked) [Compound A-8] | 100 | 50 | 100 | 70 | 100 | 70 | 60 | 50 | 70 | 100 | 80 | 70
Cc1cc(C)c(C2=C(O)CC(CC3CCOCC3)CC2=O)c(C)c1 (centres unmarked) [Compound A-9] | 100 | 60 | 100 | 70 | 100 | 90 | 80 | 70 | 70 | 90 | 80 | 80
Cc1cc(C)c(C2=C(O)CC(C(C)C3CCOCC3)CC2=O)c(C)c1 (centres unmarked) [Compound A-10] | 50 | 50 | 60 | 80 | 70 | 60 | 80 | 80 | 70 | 50 | 60 | 50
CCc1cc(C)cc(CC)c1C1=C(O)CC(C(C)C2CCOCC2)CC1=O (centres unmarked) [Compound A-11] | 100 | 100 |  | 70 | 100 |  | 100 | 90 | 90 | 100 | 90 | 80
CCc1cc(CC)c(C2=C(O)CC(C(C)C3CCOCC3)CC2=O)c(CC)c1 (centres unmarked) [Compound A-12] |  | 40 | 70 | 70 | 100 | 60 | 80 | 80 | 70 | 80 | 80 | 70
CCc1ccc(-c2ccc(Cl)cc2)cc1C1=C(O)CC(C(C)C2CCOCC2)CC1=O (centres unmarked) [Compound A-13] | 30 | 20 | 30 | 30 | 10 | 30 | 80 | 30 | 90 | 100 | 70 | 50
CCc1cc(C)cc(CC)c1C1=C(O)CC(CC2CC[S+]([O-])CC2)CC1=O (centres unmarked) [Compound A-16] | 100 | 90 | 100 | 100 | 100 |  | 60 | 90 | 100 | 70 | 90 | 80
